Results reported in BindingDB's records for PubMed 8394902 (Georgetown University, 1993).
Several values for one entry are separate records, joined by “and”; a condition that tells them apart may be missing. Identical values can stand only once.

Target: Gamma-aminobutyric acid receptor subunit alpha-1 (Rattus norvegicus, UniProt P62813)
Sequence (P62813 whole entry): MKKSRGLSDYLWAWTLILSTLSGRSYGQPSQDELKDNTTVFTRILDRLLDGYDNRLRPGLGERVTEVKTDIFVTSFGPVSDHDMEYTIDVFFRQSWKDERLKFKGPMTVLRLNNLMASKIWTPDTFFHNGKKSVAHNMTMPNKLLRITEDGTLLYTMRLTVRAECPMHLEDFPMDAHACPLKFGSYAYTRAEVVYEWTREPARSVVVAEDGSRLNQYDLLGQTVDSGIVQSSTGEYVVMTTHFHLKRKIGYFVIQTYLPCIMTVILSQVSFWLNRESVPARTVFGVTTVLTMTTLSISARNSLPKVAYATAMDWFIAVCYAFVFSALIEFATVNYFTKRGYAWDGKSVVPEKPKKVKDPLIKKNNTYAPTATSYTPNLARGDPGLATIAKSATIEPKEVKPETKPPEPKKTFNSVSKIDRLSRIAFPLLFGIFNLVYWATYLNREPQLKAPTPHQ

Cc1nnc2n1-c1ccc(Cl)cc1C(c1ccccc1)=NC2
Ki: 21 nM and 65 nM
